Results on three compounds are retold here after patent publication US6348486B1, “Methods for modulating bladder function” (American Home Products Corporation, priority 2000, dated 2002).

Structures are written as SMILES.

The test system of assay [1] is isolated carbachol contracted rat bladder strips. Nature of the assay: Relaxation of isolated carbachol contracted rat bladder strips. As for the experimental part:
(§1) Using quantitative rtPCR, the expression of KCNQ1, KCNQ3 and KCNQ5 potassium channels was identified in the rat urinary bladder. […] To further probe M-current activity in the bladder, retigabine (10 μM, M-current agonist) was tested in isolated bladder smooth muscle cells using standard patch-clamp techniques. […] This hyperpolarization was reversed by the addition of linopirdine (50 μM an M-current antagonist) to the tissue bath. […] This relaxation was reversed by the M-current blockers linopirdine and XE-991.

The target of assay [2] is T1, KCNQ2/3 potassium channels (Homo sapiens, UniProt O43525+O43526).
T1 construct: host or cells: oocytes (heterologous expression, as described in the cited article)
T1 sequence (O43526 whole entry): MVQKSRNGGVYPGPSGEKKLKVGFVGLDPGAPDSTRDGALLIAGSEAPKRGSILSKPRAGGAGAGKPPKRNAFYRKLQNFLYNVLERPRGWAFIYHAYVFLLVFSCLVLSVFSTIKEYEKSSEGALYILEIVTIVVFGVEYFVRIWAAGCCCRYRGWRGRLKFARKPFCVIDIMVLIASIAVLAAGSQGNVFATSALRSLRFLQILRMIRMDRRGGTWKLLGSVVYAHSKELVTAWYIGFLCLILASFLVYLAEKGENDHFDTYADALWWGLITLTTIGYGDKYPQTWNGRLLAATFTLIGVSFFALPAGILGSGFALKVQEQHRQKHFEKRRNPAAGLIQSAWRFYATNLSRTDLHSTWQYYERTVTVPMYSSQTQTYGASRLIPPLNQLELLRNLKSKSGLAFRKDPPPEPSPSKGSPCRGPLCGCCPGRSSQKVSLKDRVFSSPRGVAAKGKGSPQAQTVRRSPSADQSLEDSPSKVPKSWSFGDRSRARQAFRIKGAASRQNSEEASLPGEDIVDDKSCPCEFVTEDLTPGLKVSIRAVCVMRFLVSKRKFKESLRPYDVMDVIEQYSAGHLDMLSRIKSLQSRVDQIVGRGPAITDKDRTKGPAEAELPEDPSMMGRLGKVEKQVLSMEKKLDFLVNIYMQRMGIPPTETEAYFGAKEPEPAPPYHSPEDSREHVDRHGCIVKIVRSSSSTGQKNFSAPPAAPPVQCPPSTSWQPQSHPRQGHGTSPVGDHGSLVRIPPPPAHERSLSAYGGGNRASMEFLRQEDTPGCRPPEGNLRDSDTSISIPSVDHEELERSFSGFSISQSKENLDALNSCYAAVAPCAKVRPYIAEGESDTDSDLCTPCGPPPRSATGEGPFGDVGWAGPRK
T1 sequence (O43525 whole entry): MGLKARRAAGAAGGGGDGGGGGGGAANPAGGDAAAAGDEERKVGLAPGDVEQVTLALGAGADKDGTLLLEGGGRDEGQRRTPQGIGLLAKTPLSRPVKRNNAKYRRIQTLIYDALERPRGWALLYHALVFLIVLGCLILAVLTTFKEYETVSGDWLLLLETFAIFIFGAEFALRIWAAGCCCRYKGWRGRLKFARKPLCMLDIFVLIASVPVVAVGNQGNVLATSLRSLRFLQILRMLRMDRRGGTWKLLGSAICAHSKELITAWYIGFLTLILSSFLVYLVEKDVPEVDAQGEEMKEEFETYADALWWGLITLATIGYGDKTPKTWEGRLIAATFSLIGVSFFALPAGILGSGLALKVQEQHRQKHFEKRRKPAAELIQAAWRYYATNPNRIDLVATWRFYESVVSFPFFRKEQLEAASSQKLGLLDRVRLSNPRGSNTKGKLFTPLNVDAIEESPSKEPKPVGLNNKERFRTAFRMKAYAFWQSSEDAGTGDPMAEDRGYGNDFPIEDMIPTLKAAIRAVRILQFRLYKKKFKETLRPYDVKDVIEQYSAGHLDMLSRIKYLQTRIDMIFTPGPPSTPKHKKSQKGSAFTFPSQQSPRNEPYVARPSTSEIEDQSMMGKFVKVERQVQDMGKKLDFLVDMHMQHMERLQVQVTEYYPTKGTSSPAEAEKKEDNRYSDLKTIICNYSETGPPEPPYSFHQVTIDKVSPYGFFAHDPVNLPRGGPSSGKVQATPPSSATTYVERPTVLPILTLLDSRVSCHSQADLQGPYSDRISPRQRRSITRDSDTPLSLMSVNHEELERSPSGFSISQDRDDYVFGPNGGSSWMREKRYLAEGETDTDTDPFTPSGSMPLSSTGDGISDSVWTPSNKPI
Conditions: oocytes; cited from earlier work.

Assay [3] relates to isolated bladder smooth muscle cells. The experiment in a line: Patch-clamp of isolated bladder smooth muscle cells (M-current activity). The format is cell-based, rat. As for the experimental part:
as §1
Background: In patch-clamp work, channel activity is measured electrically.

As usually defined, the IC50 is the point on the concentration scale where inhibition reaches its midpoint.

Take `O=C1c2ccccc2C(Cc2ccncc2)(Cc2ccncc2)c2ccccc21` [XE-991]: the “reversal of retigabine-induced relaxation by M-current blockers” value in assay [1] was “reversed”.

Consider `CCOC(=O)Nc1ccc(NCc2ccc(F)cc2)cc1N` [retigabine, N-[2-amino-4-(4-fluorobenzylamino)-phenyl]carbamic acid ethyl ester], for which, in assay [1] (Rattus norvegicus, read-out: IC50 for relaxation of carbachol contracted bladder strips), the IC50 came out at 3.5 ± 0.9 µM. In addition, in assay [2], the channel deactivation entry is recorded as “slows channel deactivation”, the “rate of channel activation” value is “increases the rate of channel activation” and the “voltage dependence of channel activation” value is given as “shifts the voltage dependence of channel activation to more hyperpolarized membrane potentials”. The compound further showed a membrane hyperpolarization in assay [3] (retigabine 10 μM, n=5) of 17.8±3.0 mV. Also, the “outward current insensitive to iberiotoxin” value in assay [3] (retigabine 10 μM, standard patch-clamp) is given as “significantly increased”.

Regarding `O=C1N(c2ccccc2)c2ccccc2C1(Cc1ccncc1)Cc1ccncc1` [linopirdine], the “reversal of retigabine-induced relaxation by M-current blockers” value in assay [1] is given as “reversed”. In assay [3] (linopirdine 50 μM added to the tissue bath), the “reversal of retigabine-induced hyperpolarization” value is on record as “reversed”.
